One may read the pIC50 as the IC50 on a negative log10 scale, so that one unit is a factor of ten.

This assay has as its target Phosphodiesterase 10A (PDE10A) (Homo sapiens (Human), UniProt Q9Y233). Briefly: Phosphodiesterase 10A (PDE10A) activity inhibition test ([3H]cAMP scintillation proximity assay). The settings on record: dose-response, 1:10 dilutions from 100 μM to 1 nM; [3H]cAMP SPA, 20 minutes at 30° C.; read-out: IC50 PDE10. The format is biochemical. The protocol: The “analysis of the activity of the enzyme Phosphodiesterase [^3H] cAMP SPA” (Perkin Elmer #7090 TRKQ) kit was used for the study of Phosphodiesterase 10. The kit contains: • Yttrium scintillation proximity assay (SPA) in beads: yttrium silicate in microspheres resuspended pellet in MiliQ water containing 18 mM zinc sulfate. • 10×PDE assay buffer: 500 mM Tris/HCl; 83 mM MgCl2; 17 mM EGTA; pH 7.5. • Tracer [^3H] cAMP: substrate for enzymatic reaction.
The test is based on the preferential binding of linear nucleotides to the SPA beads in the presence of zinc sulfate, with respect to the binding of cyclic nucleotides, which is almost imperceptible.
The binding of the radioactively labeled product to the beads brings the isotope to a proximity enough to allow the radioactive tritium radiation to excite the flashing part in the bead. Any independent radiolabel is not sufficiently close to the flashing part to allow the transfer of energy, so that no signal is generated. In addition, as the cyclic substrate is not effectively linked with the bead, the generated background signal is very low.
The binding of the linear nucleotides with the bead is based on a complex chelation mechanism. Zinc sulfate in the microsphere solution improves the binding between the bead and […].
Phosphodiesterase 10A (PDE10A) Activity Inhibition Test
The test is performed in 96-well Flexiplates (Perkin Elmer #1450-401) with duplicates for each sample. Positive and negative controls are also required in each analyzed plate to evaluate the activity of the enzyme.
The inhibition values for each of the compounds are measured in duplicate at a concentration of 10 μM and the plate is incubated for 20 minutes at 30° C. and then 50 μL of the kit beads are then added “Phosphodiesterase SPA beads” (Perkin-Elmer #RPNQ0150).
The plate is stirred for 1 hour at room temperature. Then beads are allowed to stand for one hour before reading the activity in a beta scintillation counter.
To build a dose-response curve, in order to calculate the potency of inhibition (expressed as IC50) for PDE10A, a series of 1:10 dilutions in test in 1× buffer from 100 μM to 1 nM for each compound were carried out.

pIC50: −log10 of the molar value.

Chain of Phosphodiesterase 10A (PDE10A) (Q9Y233 whole entry, species assumed): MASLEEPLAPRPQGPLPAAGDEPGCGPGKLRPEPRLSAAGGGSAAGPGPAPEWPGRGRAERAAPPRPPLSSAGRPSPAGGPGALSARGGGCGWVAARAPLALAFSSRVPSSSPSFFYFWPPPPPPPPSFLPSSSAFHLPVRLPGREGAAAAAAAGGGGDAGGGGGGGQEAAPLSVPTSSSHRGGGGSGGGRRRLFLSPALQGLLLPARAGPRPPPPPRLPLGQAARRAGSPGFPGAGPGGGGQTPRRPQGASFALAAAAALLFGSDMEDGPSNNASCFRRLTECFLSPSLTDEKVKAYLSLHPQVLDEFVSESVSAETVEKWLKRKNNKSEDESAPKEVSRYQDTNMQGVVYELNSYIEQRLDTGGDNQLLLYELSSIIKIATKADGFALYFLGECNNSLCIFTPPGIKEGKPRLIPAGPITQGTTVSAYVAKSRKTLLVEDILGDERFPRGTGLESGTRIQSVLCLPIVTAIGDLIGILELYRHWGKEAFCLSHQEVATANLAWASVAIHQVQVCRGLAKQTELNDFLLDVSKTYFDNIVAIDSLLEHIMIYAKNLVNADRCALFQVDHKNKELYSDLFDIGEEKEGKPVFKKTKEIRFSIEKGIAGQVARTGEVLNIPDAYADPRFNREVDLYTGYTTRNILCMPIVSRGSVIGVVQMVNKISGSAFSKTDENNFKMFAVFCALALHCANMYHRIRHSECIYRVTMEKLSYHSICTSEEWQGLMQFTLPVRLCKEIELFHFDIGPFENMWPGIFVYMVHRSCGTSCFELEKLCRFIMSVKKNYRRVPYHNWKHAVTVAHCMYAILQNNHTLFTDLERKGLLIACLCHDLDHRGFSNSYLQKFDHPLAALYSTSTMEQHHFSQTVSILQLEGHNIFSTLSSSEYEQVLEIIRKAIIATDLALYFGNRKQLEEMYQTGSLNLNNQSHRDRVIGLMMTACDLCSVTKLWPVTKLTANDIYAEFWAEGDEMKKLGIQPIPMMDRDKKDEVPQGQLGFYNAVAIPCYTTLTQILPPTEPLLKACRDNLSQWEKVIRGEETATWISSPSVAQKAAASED

As to `Nc1nc(-n2ncc3ccccc32)nc(NCc2cncs2)c1Br` [Example 9, 5-bromo-2-(1H-indazol-1-yl)-N^4-[(thiazol-5-yl)methyl]pyrimidine-4,6-diamine], the pIC50 was 8.80. Consider `Cc1ncsc1CNc1nc(-n2ncc3ncccc32)nc(N)c1Br` [Example 41, 5-bromo-N^4-[(4-methylthiazol-5-yl)methyl]-2-(1H-pyrazolo[4,3-b]pyridin-1-yl)pyrimidine-4,6-diamine], for which the negative-log IC50 (pIC50) is 9.22. As for `Cc1ncsc1CNc1nc(-n2ncc3cnccc32)nc(N)c1Br` [Example 39, 5-bromo-N^4-[(4-methylthiazol-5-yl)methyl]-2-(1H-pyrazolo[4,3-c]pyridin-1-yl)pyrimidine-4,6-diamine], the pIC50 was 9.52. `Nc1nc(-n2ncc3ccncc32)nc(NCC2CC2)c1Br` [Example 35, 5-bromo-N^4-(cyclopropylmethyl)-2-(1H-pyrazolo[3,4-c]pyridin-1-yl)pyrimidine-4,6-diamine]: the negative logarithm of the IC50 (pIC50) is 8.74. The result for `C#CCNc1nc(-n2ncc3ccncc32)nc(N)c1Br` [Example 33, 5-bromo-N^4-(prop-2-ynyl)-2-(1H-pyrazolo[3,4-c]pyridin-1-yl)pyrimidine-4,6-diamine] reads 8.49; that for `Nc1nc(-n2ncc3ccccc32)nc(NCC2CC2)c1Br` [Example 1, 5-bromo-N^4-(cyclopropylmethyl)-2-(1H-indazol-1-yl)pyrimidine-4,6-diamine], 7.28. As for `C#CCNc1nc(-n2cc(-c3cnccn3)cn2)nc(N)c1Br` [Example 30, 5-bromo-N^4-(prop-2-ynyl)-2-[4-(pyrazin-2-yl)-1H-pyrazol-1-yl]pyrimidine-4,6-diamine], the figure is 8.35; as for `CCNc1nc(-n2ncc3ccccc32)nc(N)c1Cl` [Example 64, 5-chloro-N^4-ethyl-2-(1H-indazol-1-yl)pyrimidine-4,6-diamine], 7.91. Regarding `C#CCNc1nc(-n2ncc3ccccc32)nc(N)c1Br` [Example 3, 5-bromo-2-(1H-indazol-1-yl)-N^4-(prop-2-ynyl)pyrimidine-4,6-diamine], the pIC50 is 7.39. As for `CCNc1nc(-n2cc(-c3ccncn3)cn2)nc(NCc2nc3ccccc3[nH]2)c1Br` [Example 77, N^4-[(1H-benzo[d]imidazol-2-yl)methyl]-5-bromo-N^6-ethyl-2-[4-(pyrimidin-4-yl)-1H-pyrazol-1-yl]pyrimidine-4,6-diamine], the figure is 7.53; as for `Cc1ncsc1CNc1nc(-n2cc(-c3cnccn3)cn2)nc(N)c1Br` [Example 29, 5-bromo-N^4-[(4-methylthiazol-5-yl)methyl]-2-[4-(pyrazin-2-yl)-1H-pyrazol-1-yl]pyrimidine-4,6-diamine], 7.78; as for `Nc1nc(-n2ncc3ccncc32)nc(NCc2cncs2)c1Br` [Example 36, 5-bromo-2-(1H-pyrazolo[3,4-c]pyridin-1-yl)-N^4-[(thiazol-5-yl)methyl]pyrimidine-4,6-diamine], 10.22. The result for `Nc1nc(-n2cc(-c3ccccn3)cn2)nc(-n2cccn2)c1Br` [Example 55, 5-bromo-6-(1H-pyrazol-1-yl)-2-[4-(pyridin-2-yl)-1H-pyrazol-1-yl]pyrimidin-4-amine] reads 7.04; that for `C#CCNc1nc(-n2cc(-c3ccccn3)cn2)nc(N)c1Br` [Example 17, 5-bromo-N^4-(prop-2-ynyl)-2-[4-(pyridin-2-yl)-1H-pyrazol-1-yl]pyrimidine-4,6-diamine], 7.74; that for `Nc1nc(-n2cc(-c3ccc4ccccc4n3)cn2)nc(NC2CCOCC2)c1Br` [Example 23, 5-bromo-N^4-(tetrahydro-2H-pyran-4-yl)-2-[4-(quinolin-2-yl)-1H-pyrazol-1-yl]pyrimidine-4,6-diamine], 8.02. In the case of `Cc1nc(CNc2nc(-n3ncc4ccccc43)nc(N)c2Br)cs1` [Example 6, 5-bromo-2-(1H-indazol-1-yl)-N^4-[(2-methylthiazol-4-yl)methyl]pyrimidine-4,6-diamine], the negative logarithm of the IC50 (pIC50) was 7.73. The result for `Nc1nc(-n2cncn2)nc(NCc2cncs2)c1Br` [Example 45, 5-bromo-N^4-[(thiazol-5-yl)methyl]-2-(1H-1,2,4-triazol-1-yl)pyrimidine-4,6-diamine] reads 8.89; that for `Nc1nc(-n2cncn2)nc(NCC2CC2)c1Br` [Example 46, 5-bromo-N^4-(cyclopropylmethyl)-2-(1H-1,2,4-triazol-1-yl)pyrimidine-4,6-diamine], 8.47. As for `CCNc1nc(-n2cc(C(=O)N3CCOCC3)cn2)nc(N)c1Br` [Example 53, {1-[4-amino-5-bromo-6-(ethylamino)pyrimidin-2-yl]-1H-pyrazole-4-yl}(morpholino)methanone], the figure is 8.09; as for `CCNc1nc(-n2ncc3ccccc32)nc(N)c1Br` [Example 2, 5-bromo-N^4-ethyl-2-(1H-indazol-1-yl)pyrimidine-4,6-diamine], 7.66. As for `Cc1ncsc1CNc1nc(-n2ncc3ccccc32)nc(N)c1Br` [Example 10, 5-bromo-2-(1H-indazol-1-yl)-N^4-[(4-methylthiazol-5-yl)methyl]pyrimidine-4,6-diamine], the figure is 8.54; as for `Nc1nc(-n2cc(-c3ccccn3)cn2)nc(NCc2cncs2)c1Br` [Example 20, 5-bromo-2-[4-(pyridin-2-yl)-1H-pyrazol-1-yl]-N^4-[(thiazol-5-yl)methyl]pyrimidine-4,6-diamine], 8.15; as for `CCNc1nc(-n2cc(-c3ccncn3)cn2)nc(N)c1Br` [Example 61, 5-bromo-N^4-ethyl-2-[4-(pyrimidin-4-yl)-1H-pyrazol-1-yl]pyrimidine-4,6-diamine], 7.43. For the molecule `Nc1nc(-n2ncc3ccccc32)nc(NC2CCOCC2)c1Br` [Example 7, 5-bromo-N^4-(tetrahydro-2H-pyran-4-yl)-2-(1H-indazol-1-yl)pyrimidine-4,6-diamine], the pIC50 is 7.66. As for `C#CCNc1nc(-n2ncc3ccccc32)nc(NCC)c1Br` [Example 66, 5-bromo-N^4-ethyl-2-(1H-indazol-1-yl)-N^6-(prop-2-ynyl)pyrimidine-4,6-diamine], the figure is 6.92; as for `Cc1ncsc1CNc1nc(-n2ncc3ccncc32)nc(N)c1Br` [Example 34, 5-bromo-N^4-[(4-methylthiazol-5-yl)methyl]-2-(1H-pyrazolo[3,4-c]pyridin-1-yl)pyrimidine-4,6-diamine], 9.40. As for `Nc1nc(-n2cc(C(=O)O)cn2)nc(NCC2CC2)c1Br` [Example 51, 1-[4-amino-5-bromo-6-(cyclopropylmethylamino)pyrimidin-2-yl]-1H-pyrazole-4-carboxylic acid], the figure is 7.52; as for `COCCNc1nc(-n2ncc3ccccc32)nc(N)c1Br` [Example 11, 5-bromo-2-(1H-indazol-1-yl)-N^4-(2-methoxyethyl)pyrimidine-4,6-diamine], 7.59.

For `C#CCNc1nc(-n2cncn2)nc(N)c1Br` [Example 42, 5-bromo-N^4-(prop-2-ynyl)-2-(1H-1,2,4-triazol-1-yl)pyrimidine-4,6-diamine], the negative-log IC50 (pIC50) is 8.24. As for `Cn1cc(CNc2nc(-n3ncc4ccccc43)nc(N)c2Br)cn1` [Example 8, 5-bromo-2-(1H-indazol-1-yl)-N^4-[(1-methyl-1H-pyrazol-4-yl)methyl]pyrimidine-4,6-diamine], the figure is 7.13.

The values are drawn from patent US9447095B2, “Pyrimidine derivatives as phosphodiesterase 10 inhibitors (PDE-10)” (PALOBIOFARMA S.L., priority 2013, dated 2016).
